Test results taken from patent US6403788B1, “Non-genotoxic metalloporphyrins as synthetic catalytic scavengers of reactive oxygen species” (Eukarion, Inc., priority 2000, dated 2002).

Key:
[1] = Superoxide dismutase activity, xanthine-xanthine oxidase / cytochrome C; assay type: biochemical; settings: reciprocal of IC50; xanthine 60 μM, xanthine oxidase 0.009 units/ml, cytochrome C 27.8 μM
Experimental: Superoxide Dismutase Activity was measured by incubating the compound with a superoxide generating system (Xanthine, 60 μM-Xanthine Oxidase, 0.009 units/ml) and a detector molecule (Cytochrome C, 27.8 μM). Upon reacting with a molecule of superoxide, Cytochrome C undergoes a spectrum-shift which can be detected as an increase in absorbance at 550 nm. In this assay procedure, the reactant concentrations were adjusted to give a reaction rate close to 0.1 AU/min. at 2-3 min. after the reaction began. Addition of compounds with Superoxide Dismutase activity reduce the rate of absorbance change. Compounds were assayed at several concentrations (typically at 0, 2, 4, and 8 μM) and the resulting rates were graphed and fitted to a linear regression formula. The linear regression formula was then solved to determine the concentration of compound required to reduce the reaction rate to 50% of the rate without compound present (IC50).

[2] = tested on: ΦX 174 DNA Plasmid (Form I); settings: literature (Bernadou 1989, Vialas 2000, Meunier 1992); cited from earlier work
[3] = Peroxidase activity, ABTS oxidation; assay type: biochemical; settings: 10 μM compound, 200 μM hydrogen peroxide, 500 μM ABTS, pH 8.1, 740 nm
Experimental: Peroxidase activity was measured by incubating 10 μM compound, 200 μM hydrogen peroxide and 500 μM ABTS in 50 mM sodium phosphate, pH 8.1. The rate of ABTS oxidation was monitored at 740 nm and initial rates (change in absorbance per min.) determined.

[4] = Catalase activity, hydrogen peroxide consumed at 20 minutes; assay type: biochemical; settings: over 20 minutes; 10 μM compound, 100 μM hydrogen peroxide, 40 mM sodium phosphate pH 7.4
Experimental: (§1) Catalase activity was measured by incubating the sample compound with hydrogen peroxide and determining the amount of hydrogen peroxide remaining after a period of time using a colorimetric peroxidase-coupled assay method. 10 μM sample compound and 100 μM hydrogen peroxide in 40 mM sodium phosphate pH 7.4 were incubated together at ambient temperature in a multi-well plate. After the desired reaction period had elapsed, 20 μl of peroxidase/ABTS reagent was added (peroxidase/ABTS reagent contained 100 μl of 50 mM Na phosphate, pH 7.4, 1 mg horseradish peroxidase (1310 U/mg) and […]). After five minutes, absorbance at 750 nm was determined. The amount of hydrogen peroxide remaining was calculated based on a standard curve. To compare rates of catalase reaction, the amount of hydrogen peroxide consumed at 20 minutes was determined (See table III). It was also of interest to determine the total number of turnovers completed by the compound before inactivation by hydrogen peroxide. This was assayed under similar conditions, except that 15.8 μM compound was combined with 1582 μM hydrogen peroxide in 5 mM Na phosphate, pH 7.4. Reactions were allowed to proceed to completion and then the amount of hydrogen peroxide remaining was determined as described above. Results showing […] in the turnover assay (nmoles hydrogen peroxide per nmole compound) are also shown in Table III.

[5] = Catalase turnover assay, total hydrogen peroxide consumed before inactivation; assay type: biochemical; settings: to completion, 15.8 μM compound, 1582 μM hydrogen peroxide, 5 mM Na phosphate pH 7.4
Experimental: as §1

[6] = tested on: ΦX 174 DNA Plasmid (Form I); experiment: Cleavage of ΦX 174 DNA plasmid (form I), compound alone or activated with KHSO5; assay type: biochemical, phage ΦX 174; settings: for S (single-strand breaks per DNA molecule) / form % I / form % II / form % III: DNA 3.5 nM, compound 10 nM
From the text: The DNA cleavage activity was quantified in terms of number of single-strand breaks per DNA molecule according to the equation […], Io=% form I (supercoiled DNA) in the DNA control, and I=% form I in the experiment (see Bernadou et al, Biochemistry, 28: 7268-7275, (1989)). This assay is very sensitive and is able to detect very low levels of DNA activity. S values less than S=1.0 are indicative of very low DNA cleavage activity when the compounds are at a concentration of equal to or less than 1000 nM and KHSO5 is present at a concentration of equal to or less than 100 μM.
ΦX 174 DNA digestion conditions for standard experiments were as follows: commercially available DNA was diluted to 50 μg/mL in phosphate buffer (10 mM, pH 7.5). The reaction involved 5 μL of ΦX 174 DNA (50 μg/mL, 74.8 μM in base pairs), 5 μL of 40 mM phosphate buffer, pH 7.5 with 400 mM NaCl, 5 μL of metalloporphyrin in double-distilled water or 5 μL of iron-bleomycin complex in double-distilled water, and 5 μL of KHSO5 or 5 μL of H2O2 or 5 μL of ascorbate in double-distilled water. Preincubation of DNA and metalloporphyrins or iron-bleomycin complex was performed for about 15 min. The digestion time in the presence of KHSO5 was 10 min, of H2O2 was 30 min and of ascorbate was 30 min at 20° C. DNA cleavage was monitored by agarose gel electrophoresis. Reactions with KHSO5 were first quenched by 2 μL of 100 mM Hepes buffer, pH 8. In all cases, reactions were quenched by 5 μL of a stopping reagent. The stopping reagent consisted of 250 mM Hepes buffer, pH 7.4, containing 75% glycerol and 0.05% bromophenol blue. Reaction mixtures were then run in 0.8% agarose slab horizontal gel containing ethidium bromide […], at constant current (25 mA for 15h), in 89 mM Tris-borate buffer and 2.5 mM EDTA pH 8.3. Bands were located by WV light (254 nm), photographed, and quantitated by microdensitometry. The correction coefficient 1.47±0.30 was used for decreased stainability of form I DNA vs form II DNA and form III DNA.

[7] = tested on: CBA/J female mice, oxazolone-induced inflammatory ear edema; experiment: Delayed type hypersensitivity: oxazolone-induced ear edema; assay type: in vivo
From the text: CBA/J female mice (Jackson Labs, Bar Harbor, ME) 7 weeks of age were pre-sensitized with 3% oxazolone (Sigma Chemical Co., St. Louis, Mo.) in 99.9% acetone, on the abdomen. After 8 days, the mice were challenged with 1.2% oxazolone topically on one ear to induce an inflammatory edema. Either Structural Formula V, Structural Formula IV at a dose of 7 nmoles/ear each, or ethanol, i.e. vehicle control (eight mice per study group), was applied topically to the ear immediately after the oxazolone challenge. Ear edema was measured by comparing the tissue water content (the wet weight minus the dry weight) of the challenged ear to that of the control ear. The percent edema (% water in the right ear-left ear) in the vehicle control was 6.5% and 2.1% and 3.9% for Structural Formula V and Structural Formula IV, respectively at a dose of 7 nmoles/ear.

Compound | Cyt C SOD 1/(IC50, μM) [1] [µM⁻¹] | oxidative DNA cleavage (literature statement) [2] | PEROXIDASE Initial Rate [3] | CATALASE* Rate at 20 mins. [4] | CATALASE** H2O2 Consumption [5] | S (single-strand breaks per DNA molecule) ([6]; KHSO5 10 μM) [SSBs] | form % I ([6]; KHSO5 10 μM) [%] | form % II ([6]; KHSO5 10 μM) [%] | form % III ([6]; KHSO5 10 μM) [%] | S (single-strand breaks per DNA molecule) ([6]; without KHSO5) [SSBs] | form % I ([6]; without KHSO5) [%] | form % II ([6]; without KHSO5) [%] | form % III ([6]; without KHSO5) [%] | times more active in DNA cleavage than Structural Formula V ([6]; same concentration (10 nM), with KHSO5, from experiments 6, 9 and 10) [times] | effect on edema compared to vehicle ([7]; 7 nmoles/ear topically) | percent edema (% water in the right ear-left ear) ([7]; 7 nmoles/ear topically immediately after oxazolone challenge, vehicle control 6.5%) [%]
C[n+]1ccc(-c2c3nc(c(-c4cc[n+](C)cc4)c4ccc([n-]4)c(-c4cc[n+](C)cc4)c4nc(c(-c5cc[n+](C)cc5)c5ccc2[n-]5)C=C4)C=C3)cc1.[Mn+3] [MnTMPyP, 5, 10, 15, 20 meso-tetrakis(4-methylpyridiniumyl)porphyrinato-manganese (III), reference compound] | 0.143 | able to generate DNA damage at nanomolar concentrations | 0.0672 change in absorbance per min. | 3.4 nmole H2O2/nmole Structural Formula compound | 31.1 nmole H2O2/nmole Structural Formula compound | 15.3 | 1 | 86 | 13 | 0.03 | 90 | 10 | 0 | 1527 |  | 
CC[NH+](CC)CCNS(=O)(=O)c1c(C)cc(C)c(C2=C3C=CC4=[N+]3[Mn-]35[n]6c2ccc6C(c2c(C)cc(C)c(S(=O)(=O)NCC[NH+](CC)CC)c2C)=C2C=CC(=[N+]23)C(c2c(C)cc(C)c(S(=O)(=O)NCC[NH+](CC)CC)c2C)=c2ccc([n]25)=C4c2c(C)cc(C)c(S(=O)(=O)NCC[NH+](CC)CC)c2C)c1C.[Cl-].[Cl-].[Cl-].[Cl-].[Cl-] [Structural Formula IV, meso-tetrakis[3-(N-(2-(N,N-diethylammonio)ethyl)aminosulfonyl)-2,4,6-trimethylphenyl]porphyrinato diaqua-manganese (III) pentachloride] | 0.043 |  | 0.021 change in absorbance per min. | 1.0 nmole H2O2/nmole Structural Formula compound | 189.9 nmole H2O2/nmole Structural Formula compound |  |  |  |  |  |  |  |  |  | effective in reducing the percentage of edema | 3.9
